Data published in patent publication US12419854B2, “Methods for treating or preventing gout or hyperuricemia” (Arthrosi Therapeutics, Inc., priority 2018, dated 2025).
Like-named read-outs stand apart in the source and are kept apart here. Each block holds one compound with its values, some of them ahead of it.

Assays:
[1] = In vitro metabolism in human liver microsomes (HPLC-MS profiling); format: in vitro ADME; conditions: for % MS response, Parent: human liver microsomes 0.5 mg/mL, NADPH, 60 minutes, 37° C.
Description: After pre-warming the mixture at 37° C. for 5 minutes, the reaction was initiated by the addition of 1 mM of NADPH and incubated for 60 minutes at 37° C. in a shaking water bath. The reaction was terminated by the addition of 0.5 mL ice-cold acetonitrile. Time 0 incubation was also performed by adding acetonitrile before the addition of microsomes to the incubation mixture as a reference sample for each species. Following vortex and centrifugation at 15,000 g for 3 minutes at room temperature, resulting supernatant was concentrated under nitrogen flow at 33° C., until approximately 0.5 mL of sample remained. The extract was then transferred to a 1.5-mL centrifuge vial for centrifugation at 15,000 g for 3 minutes. Finally, aliquots of the supernatant were transferred to HPLC vials for HPLC-MS analyses.
MS Analysis: Mass spectral analyses were performed on an Agilent single quadruple mass spectrometer equipped with an Agilent 1100 HPLC system. The mass spectrometer was fitted with an electrospray ionization (ESI) source and operated in a negative scan mode between 400 and 500 amu:
Metabolic profiling of benzbromarone was conducted using a similar method as described above.

Sprague-Dawley Rats = experiment: 4-week oral toxicity study in Sprague-Dawley rats; format: in vivo; conditions: rat
Description: (§1) On Day 29, surviving TS animals (all animals in study) were euthanized and subjected to a full gross necropsy, which included a macroscopic examination of the external surface of the body, all orifices, cranial cavity, external surface of the brain, the thoracic, abdominal and pelvic cavities and their viscera, cervical areas, carcass and genitalia. Organs were weighed as soon as possible from all main study animals at the scheduled necropsies. Tissues from Groups 1 and 5 animals at the terminal sacrifice, from animals found dead or moribund-sacrificed, and gross lesions from all animals, were embedded in paraffin, sectioned, stained with hematoxylin and eosin and examined microscopically by a board certified veterinary pathologist.

[2] = Phase 1 single dose study, plasma pharmacokinetics; format: in vivo, human; conditions: for power model intercept (a) of exposure versus dose: male, human, plasma, oral
Description: (§2) The dose groups included Cohort 1 (15 mg or placebo, fasted, oral suspension), Cohort 2 (50 mg or placebo, fasted, suspension), Cohort 3 (100 mg or placebo, fasted, oral suspension), Cohort 4 (150 mg or placebo, fasted, oral suspension), Cohort 6 (50 mg or placebo, fed, oral suspension), and Cohort 7 (50 mg or placebo, fasted, oral capsule). […] An additional 8 subjects received placebo.
The results are consistent with observation in animal testing and higher exposure of S-enantiomer was attributed to the conversion of the R-enantiomer in vivo.

serum uric acid (sUA) [3] = experiment: Phase 1 multiple ascending dose study, pharmacodynamics (serum uric acid); format: in vivo, human; conditions: 25, 50 or 75 mg once daily oral capsules, fasted, 10 days; in words
Description: An additional 6 subjects received placebo.
Steady-state sUA lowering effect was achieved after approximately 5 days.

serum uric acid (sUA) [4] = experiment: Phase 1 single dose study, pharmacodynamics (serum uric acid); format: in vivo, human; conditions: for Percent change in serum uric acid, mean, time-matched (Day-1) baseline: 0 h
Description: as §2
Decrease in sUA appeared to reach a plateau at 100 mg or lower.

[5] = molecular target: T1, human URAT1 uptake transporter (Homo sapiens, UniProt Q96S37); experiment: Inhibition of URAT1-mediated uric acid uptake in MDCKII cells stably expressing human URAT1; format: cell-based
T1 construct: expressed in transfected cells
T1 sequence (Q96S37 1-553): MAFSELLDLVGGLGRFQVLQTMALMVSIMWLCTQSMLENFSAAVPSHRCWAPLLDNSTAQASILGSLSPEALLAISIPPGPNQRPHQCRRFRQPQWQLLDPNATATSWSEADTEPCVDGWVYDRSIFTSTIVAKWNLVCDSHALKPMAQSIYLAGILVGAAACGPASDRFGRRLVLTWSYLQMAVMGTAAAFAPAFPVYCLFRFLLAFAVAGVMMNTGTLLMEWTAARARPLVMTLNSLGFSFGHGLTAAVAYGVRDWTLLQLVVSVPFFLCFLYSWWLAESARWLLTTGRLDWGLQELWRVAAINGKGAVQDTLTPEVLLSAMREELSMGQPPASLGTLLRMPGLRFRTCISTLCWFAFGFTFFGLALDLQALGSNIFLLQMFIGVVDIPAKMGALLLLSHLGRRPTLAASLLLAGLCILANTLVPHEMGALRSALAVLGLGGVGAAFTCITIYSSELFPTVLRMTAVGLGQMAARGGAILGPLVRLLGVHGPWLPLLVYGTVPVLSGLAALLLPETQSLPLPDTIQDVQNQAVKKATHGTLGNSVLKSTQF
Description: Uptake experiments were performed using MDCKII cells stably expressing the human URAT1 uptake transporter. Cells were cultured at 37+1° C. in an atmosphere of 95:5 air:CO2 and were plated onto standard 96-well tissue culture plates at the cell number described in Table 1.
Radiolabeled probe substrate transport was determined by measuring an aliquot (35 μL) from each well for liquid scintillation counting.

Cynomolgus Monkeys = experiment: 4-week oral toxicity study in cynomolgus monkeys; format: in vivo
Description: as §1, with “from” for “from Groups 1 and 5”

SMILES: [2H]c1c([2H])c([2H])c2c(C(=O)c3cc(Br)c(O)c(Br)c3)c(C(C)O)oc2c1[2H] (racemic) [Compound 1, (3,5-dibromo-4-hydroxyphenyl)(2-(1-hydroxyethyl)benzofuran-3-yl-4,5,6,7-d4)methanone]
% MS response, Parent [1]: 82.5%
formation of 6-OH benzbromarone and 5,6-di-OH benzbromarone metabolites ([1]; in words): not formed
effect on food consumption of body weight (Sprague-Dawley Rats; 2-50 mg/kg/day oral gavage, 28 days): no effect
kidney weight (Sprague-Dawley Rats; female, 50 mg/kg/day, 28 days): kidney weight increase
liver weight (Sprague-Dawley Rats; female, ≥15 mg/kg/day, 28 days): Liver weight increase
human equivalent of NOAEL (Sprague-Dawley Rats; in vivo): 500 mg
liver weight (Sprague-Dawley Rats; male, 50 mg/kg/day, 28 days): Liver weight increase
food effect on Cmax in the fed state ([2]; 50 mg, fed versus fasted): ~33%
dose proportionality of AUC (AUCinf) ([2]; 15 to 150 mg, fasted, in words): dose proportional increases
dose proportionality of Cmax ([2]; 15 to 150 mg, fasted, in words): slightly less than dose proportionality increase
power model intercept (a) of exposure versus dose ([2]; 15 to 150 mg, fasted, AUCinf (μg · h/mL) = a × dose^b, read-out: power model intercept, AUCinf): 944 ng·h/mL
power model intercept (a) of exposure versus dose ([2]; 15 to 150 mg, fasted, Cmax (μg/mL) = a × dose^b, read-out: power model intercept, Cmax): 96.6 ng/mL
AUCinf (Total) ([2]; single oral dose 50 mg, fed, suspension (C6)): 51200 ng·h/mL
volume of distribution, range over dose groups ([2]; single oral dose 15-150 mg): 14 to 18 L
mean sUA levels versus placebo group (serum uric acid (sUA) [3]): dose-dependent decreases
sUA reduction with versus without food (serum uric acid (sUA) [4]; 50 mg single dose, throughout 120 hours post-dose, in words): no difference
Percent change in serum uric acid, mean, time-matched (Day-1) baseline (serum uric acid (sUA) [4]; single oral dose 15 mg, fasted): −3.4%
Percent change in serum uric acid, mean, time-matched (Day-1) baseline (serum uric acid (sUA) [4]; single oral dose 50 mg, fasted (suspension)): −8.9%
Serum uric acid, mean (serum uric acid (sUA) [4]; single oral dose 50 mg, fasted (suspension), −12 h (pre-dose)): 5.9 mg/dL
Serum uric acid, mean (serum uric acid (sUA) [4]; single oral dose 50 mg, fasted (suspension), −24 h (pre-dose)): 6.7 mg/dL
Serum uric acid, mean (serum uric acid (sUA) [4]; single oral dose 50 mg, fasted, Capsule, −12 h (pre-dose)): 5.5 mg/dL
Serum uric acid, mean (serum uric acid (sUA) [4]; single oral dose 50 mg, fasted, Capsule, −18 h (pre-dose)): 5.5 mg/dL
Percent change in serum uric acid, mean, time-matched (Day-1) baseline (serum uric acid (sUA) [4]; single oral dose 50 mg, fed): −1.0%
Serum uric acid, mean (serum uric acid (sUA) [4]; single oral dose 50 mg, fed, −12 h (pre-dose)): 6.2 mg/dL
Serum uric acid, mean (serum uric acid (sUA) [4]; single oral dose 50 mg, fed, −24 h (pre-dose)): 6.5 mg/dL
Percent change in serum uric acid, mean, time-matched (Day-1) baseline (serum uric acid (sUA) [4]; single oral dose 100 mg, fasted): −6.6%
Serum uric acid, mean (serum uric acid (sUA) [4]; single oral dose 150 mg, fasted, −18 h (pre-dose)): 5.7 mg/dL
mean sUA levels versus placebo group (serum uric acid (sUA) [4]; single oral dose 15, 50, 100, and 150 mg fasted, at 50 mg or higher, in words): dose-dependent decreases
inhibition at 10 µM ([5]; MDCK-II, at 10 μM, read-out: inhibition of URAT1 mediated uric acid accumulation): 100%
in vitro URAT1 potency versus benzbromarone ([5]; comparison in words): better in vitro URAT1 potency than benzbromarone
human equivalent of NOAEL (Cynomolgus Monkeys; cynomolgus monkey, in vivo): 600 mg
effect on food consumption of body weight (Cynomolgus Monkeys; monkey, 10-150 mg/kg/day, 28 days): no effect
liver weight (Cynomolgus Monkeys; monkey, male, 150 mg/kg/day, no statistical difference): trended higher

% MS response, Parent [1]: 13.1%
SMILES: CCc1oc2ccccc2c1C(=O)c1cc(Br)c(O)c(Br)c1 [Benzbromarone, reference compound]
